ChEMBL document CHEMBL4145522, “Design, synthesis and biological evaluation of non-secosteriodal vitamin D receptor ligand bearing double side chain for the treatment of chronic pancreatitis” (Eur J Med Chem, 2018)
The source made the active and inactive calls. The calls are words filed in the database; no cut-off is given here.

Legend:
[1] = species: Rattus norvegicus; test: (§1) Antifibrotic activity against TGFbeta1 stimulated rat LTC-14 cells assessed as inhibition of collagen 1 synthesis at 0.5 uM after 24 hrs by ELISA relative to calcipotriol; format: functional
[2] = molecular target: T1, Vitamin D3 receptor (Homo sapiens) (UniProt P11473); test: Transactivation of VDR (unknown origin) expressed in HEK293 cells harboring pENTER-CMV-human RXRalpha at 10^-8M to 10^-6M after 24 hrs by luciferase reporter gene assay; format: cell-based
T1 sequence (whole entry): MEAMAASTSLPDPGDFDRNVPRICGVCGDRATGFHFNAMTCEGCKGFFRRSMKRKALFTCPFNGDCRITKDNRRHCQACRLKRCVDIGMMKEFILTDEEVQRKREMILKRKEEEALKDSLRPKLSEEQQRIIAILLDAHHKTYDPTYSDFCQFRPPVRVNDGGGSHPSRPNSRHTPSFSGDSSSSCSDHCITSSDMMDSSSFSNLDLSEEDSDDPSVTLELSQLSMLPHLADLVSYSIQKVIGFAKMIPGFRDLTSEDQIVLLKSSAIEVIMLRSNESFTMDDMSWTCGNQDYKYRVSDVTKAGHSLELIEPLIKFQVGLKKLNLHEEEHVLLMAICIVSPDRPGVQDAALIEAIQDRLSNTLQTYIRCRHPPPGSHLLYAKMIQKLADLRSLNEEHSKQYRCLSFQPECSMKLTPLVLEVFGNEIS

[3] = as §1; format: functional; details: LTC-14, 24 h
[4] = species: Rattus norvegicus; test: Antifibrotic activity against TGFbeta1 stimulated rat LTC-14 cells assessed as inhibition of collagen 1 level at 500 nM after 24 hrs by Western blot; format: functional
[5] = species: Rattus norvegicus; test: Antifibrotic activity against TGFbeta1 stimulated rat LTC-14 cells assessed as inhibition of alpha-SMA level at 500 nM after 24 hrs by Western blot; format: functional
[6] = species: Rattus norvegicus; test: Antifibrotic activity against TGFbeta1 stimulated rat LTC-14 cells assessed as inhibition of collagen 1 alpha 1 mRNA expression at 500 nM after 24 hrs by RT-qPCR analysis; format: functional
[7] = species: Rattus norvegicus; test: Antifibrotic activity against TGFbeta1 stimulated rat LTC-14 cells assessed as inhibition of alpha-SMA mRNA expression at 500 nM after 24 hrs by RT-qPCR analysis; format: functional
[8] = molecular target: T1, Vitamin D3 receptor (Homo sapiens); test: Transactivation of VDR (unknown origin) expressed in HEK293 cells harboring pENTER-CMV-human RXRalpha after 24 hrs by luciferase reporter gene assay; format: cell-based
[9] = tested on: Mus musculus; test: Toxicity in caerulein induced chronic pancreatic C57BL/6J mouse model assessed as change in serum calcium levels at 0.5 mg/kg, po administered via gavage treated for 5 times per week measured after 3 days; format: organism-based; details: in vivo, 72 h
[10] = AUC (0 to infinity) in C57BL/6J mouse at 10 mg/kg, iv by HPLC analysis; format: ADME, organism-based; set-up: dose 10 mg/kg, time infinity, route intravenous; details: in vivo
[11] = AUC (0 to infinity) in C57BL/6J mouse at 20 mg/kg, po by HPLC analysis; format: ADME, organism-based; set-up: dose 20 mg/kg, route oral, time infinity; details: in vivo
[12] = Half life in C57BL/6J mouse at 10 mg/kg, iv by HPLC analysis; format: ADME, organism-based; details: in vivo
[13] = Half life in C57BL/6J mouse at 20 mg/kg, po by HPLC analysis; format: ADME, organism-based; details: in vivo
[14] = MRT in C57BL/6J mouse at 10 mg/kg, iv by HPLC analysis; format: ADME, organism-based; details: in vivo
[15] = MRT in C57BL/6J mouse at 20 mg/kg, po by HPLC analysis; format: ADME, organism-based; details: in vivo
[16] = Clearance in C57BL/6J mouse at 10 mg/kg, iv by HPLC analysis; format: ADME, organism-based; details: in vivo
[17] = Clearance in C57BL/6J mouse at 20 mg/kg, po by HPLC analysis; format: ADME, organism-based; details: in vivo
[18] = Oral bioavailability in C57BL/6J mouse at 20 mg/kg by HPLC analysis; format: ADME, organism-based; details: in vivo
[19] = tested on: Mus musculus; test: Antifibrotic activity in caerulein induced chronic pancreatic C57BL/6J mouse model assessed as inhibition of pancreas lesions at 0.5 mg/kg, po administered via gavage treated for 5 times per week measured after 3 days by hematoxylin and eosin staining based histopathological analysis; format: functional, organism-based
[20] = tested on: Mus musculus; test: Antifibrotic activity in caerulein induced chronic pancreatic C57BL/6J mouse model assessed as inhibition of collagen deposition at 0.5 mg/kg, po administered via gavage treated for 5 times per week measured after 3 days by Masson's trichrome staining based histopathological analysis; format: functional, organism-based
[21] = tested on: Mus musculus; test: Antifibrotic activity in caerulein induced chronic pancreatic C57BL/6J mouse model assessed as inhibition of alpha-SMA expression in interstitial area of pancreas tissue at 0.5 mg/kg, po administered via gavage treated for 5 times per week measured after 3 days by immunohistochemistry analysis; format: functional, organism-based
[22] = tested on: Mus musculus; test: Toxicity in caerulein induced chronic pancreatic C57BL/6J mouse model assessed as change in body weight at 0.5 mg/kg, po administered via gavage treated for 5 times per week measured after 3 days; format: organism-based; details: in vivo, 72 h
[23] = tested on: Mus musculus; test: Toxicity in caerulein induced chronic pancreatic C57BL/6J mouse model assessed as serum calcium levels at 0.5 mg/kg, po administered via gavage treated for 5 times per week measured after 3 days (reference value: 0.25 umol/ml); format: organism-based; details: in vivo, 72 h
[24] = tested on: Mus musculus; test: Toxicity in caerulein induced chronic pancreatic C57BL/6J mouse model assessed as reduction in body weight at 0.5 mg/kg, po administered via gavage treated for 5 times per week measured after 3 days; format: organism-based; details: in vivo, 72 h

Structure (SMILES) | inhibition [1] | inhibition at 0.5 µM [3] [%] | inhibition [4] | inhibition [5] | further results
CCC(CC)(c1ccc(OCCCCCCCO)c(C)c1)c1ccc(OCC(O)C(C)(C)C)c(OCC(O)C(C)(C)C)c1 (stereo not drawn) | inactive | – | – | – | –
CCC(CC)(c1ccc(OCC(O)CO)c(C)c1)c1ccc(OCC(O)C(C)(C)C)c(C)c1 (stereo not drawn) [LG-190178] | – | 97 | Active | Active | Activity [2]: Active; inhibition [6]: Active; inhibition [7]: Active
CCC(CC)(c1ccc(OCC(O)CO)c(C)c1)c1ccc(OCC(O)C(C)(C)C)c(OCC(O)C(C)(C)C)c1 (stereo not drawn) | – | 147 | – | – | Activity [8]: Dose-dependent effect
CCC(CC)(c1ccc(OCCCCCC(=O)O)c(C)c1)c1ccc(OCC(O)C(C)(C)C)c(OCC(O)C(C)(C)C)c1 (stereo not drawn) | inactive | – | – | – | –
CCC(CC)(c1ccc(OCCCCCO)c(C)c1)c1ccc(OCC(O)C(C)(C)C)c(OCC(O)C(C)(C)C)c1 (stereo not drawn) | – | 133 | – | – | –
CCC(CC)(c1ccc(OS(=O)(=O)c2ccc([N+](=O)[O-])cc2)c(C)c1)c1ccc(OCC(O)C(C)(C)C)c(OCC(O)C(C)(C)C)c1 (stereo not drawn) | – | 82 | – | – | –
CCC(CC)(c1ccc(OCCCCO)c(C)c1)c1ccc(OCC(O)C(C)(C)C)c(OCC(O)C(C)(C)C)c1 (stereo not drawn) | – | 189 | Active | Active | Activity [8]: Dose-dependent effect
CCC(CC)(c1ccc(OCCO)c(C)c1)c1ccc(OCC(O)C(C)(C)C)c(OCC(O)C(C)(C)C)c1 (stereo not drawn) | – | 128 | Active | Active | –
CCC(CC)(c1ccc(OCCCCCCC(=O)O)c(C)c1)c1ccc(OCC(O)C(C)(C)C)c(OCC(O)C(C)(C)C)c1 (stereo not drawn) | inactive | – | – | – | –
CCC(CC)(c1ccc(OCCCCCCO)c(C)c1)c1ccc(OCC(O)C(C)(C)C)c(OCC(O)C(C)(C)C)c1 (stereo not drawn) | – | 74 | – | – | –
CCC(CC)(c1ccc(OCCCCC(=O)O)c(C)c1)c1ccc(OCC(O)C(C)(C)C)c(OCC(O)C(C)(C)C)c1 (stereo not drawn) | inactive | – | – | – | –
CCC(CC)(c1ccc(OS(=O)(=O)c2ccc(C)cc2)c(C)c1)c1ccc(OCC(=O)C(C)(C)C)c(OCC(=O)C(C)(C)C)c1 | – | 85 | Active | Active | –
CCC(CC)(c1ccc(OS(=O)(=O)c2ccccc2)c(C)c1)c1ccc(OCC(O)C(C)(C)C)c(OCC(O)C(C)(C)C)c1 (stereo not drawn) | – | 23 | – | – | –
CCC(CC)(c1ccc(OS(C)(=O)=O)c(C)c1)c1ccc(OCC(O)C(C)(C)C)c(OCC(O)C(C)(C)C)c1 (stereo not drawn) | – | 8 | – | – | –
CCC(CC)(c1ccc(OCCCC(=O)O)c(C)c1)c1ccc(OCC(O)C(C)(C)C)c(OCC(O)C(C)(C)C)c1 (stereo not drawn) | inactive | – | – | – | –
CCC(CC)(c1ccc(OCCCO)c(C)c1)c1ccc(OCC(O)C(C)(C)C)c(OCC(O)C(C)(C)C)c1 (stereo not drawn) | – | 172 | Active | Active | Activity [9]: Non-Toxic; Activity [8]: Dose-dependent effect; inhibition [6]: Active; inhibition [7]: Active; AUC(0-inf) [10]: 32600 ng·h/mL; AUC(0-inf) [11]: 20600 ng·h/mL; half-life [12]: 2.66 h; half-life [13]: 4.12 h; MRT [14]: 4.65 h; MRT [15]: 6.59 h; clearance [16]: 5.17 mL/min; CL/F [17]: 20.2 mL/min; bioavailability [18]: 31.6%; inhibition [19]: Active; inhibition [20]: Active; inhibition [21]: Active; Activity [22]: Non-Toxic
CCC(CC)(c1ccc(OCC(=O)O)c(C)c1)c1ccc(OCC(O)C(C)(C)C)c(OCC(O)C(C)(C)C)c1 (stereo not drawn) | inactive | – | – | – | –
CCC(CC)(c1ccc(OS(=O)(=O)c2ccc(C)cc2)c(C)c1)c1ccc(OCC(O)C(C)(C)C)c(OCC(O)C(C)(C)C)c1 (stereo not drawn) | – | 137 | – | – | –
C=C1/C(=C\C=C2/CCC[C@]3(C)[C@@H]([C@H](C)/C=C/[C@@H](O)C4CC4)CC[C@@H]23)C[C@@H](O)C[C@@H]1O [CALCIPOTRIENE] | – | 100 | Active | Active | Activity [23]: 0.37 µmol/mL; Activity [2]: Active; inhibition [6]: Active; inhibition [7]: Active; Activity [24]: Toxic
